# Molecular target: T1, IspE (4-diphosphocytidyl-2-c-methyl-d-erythritol kinase; Rv1011) (Mycobacterium tuberculosis, UniProt P9WKG7)
# T1 sequence (P9WKG7 2-318): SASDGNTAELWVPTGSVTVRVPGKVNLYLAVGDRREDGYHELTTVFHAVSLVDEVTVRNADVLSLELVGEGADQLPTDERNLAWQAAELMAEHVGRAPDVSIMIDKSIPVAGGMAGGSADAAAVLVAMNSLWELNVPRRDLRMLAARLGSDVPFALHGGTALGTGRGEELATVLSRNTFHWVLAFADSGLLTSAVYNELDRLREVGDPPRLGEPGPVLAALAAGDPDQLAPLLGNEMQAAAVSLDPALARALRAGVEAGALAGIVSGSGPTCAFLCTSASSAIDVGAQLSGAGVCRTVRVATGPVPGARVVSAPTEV
# Test: ADP Quest HS coupled fluorescent kinase assay (resorufin) with Rv1011, ATP and CDP-ME
# Format: biochemical
smiles,measurement,value
Cc1ccc([C@H]2c3c([nH]n(-c4ccccc4)c3=O)NC3=C[C@H](C)CC(=O)[C@H]32)cc1 [A1],IC50,15.6 µM
